Patent US11964951B2, “Process of making derivatives of substituted morpholines” (Supernus Pharmaceuticals, Inc., priority 2022, dated 2024)

Tests used:
[1] = relative to the (R)-(+)-isomer; J. Med. Chem. 1976, 19(8), 1074; cited from earlier work
[2] = chemical stability on standing / by HPLC during work-up; assay type: physicochemical; conditions: kept at room temperature overnight
Protocol: The process was repeated. The mother liquor materials were combined. A 15-g portion of the mother liquor material (a syrupy liquid) was subjected to a water-acid-base extraction by dissolving the mother liquor in 50 mL of ethyl acetate and washing with water then with 1N HCl (2×). The ethyl acetate layer contained 2-((2-ethoxyphenoxy)methyl)morpholine, unreacted BOC compound 5, and a trace of the desired compound. The HCl solution was mainly the desired amine 6 HCl salt plus some 2-((2-ethoxyphenoxy)methyl)morpholine and a minor impurity. This solution was made alkaline with sodium bicarbonate, extracted with dichloromethane (3×) washed with brine, and dried over magnesium sulfate. […] The material was kept at room temperature overnight whereupon it decomposed.
The ethyl acetate solution of the free base was treated with a solution of 150 mg of maleic acid in 2 mL of isopropanol. […] The material was dissolved in dichloromethane, washed with water, and evaporated to give 374 mg of the maleate as an oil.

Structure (SMILES)	pharmacological activity as compared to the (R)-(+)-isomer [1]	stability of the isolated material [2]
CCOc1ccccc1OC[C@@H]1CNCCO1 [(S)-enantiomer, (S)-2-((2-ethoxyphenoxy)methyl)morpholine]	five times	
CCOc1ccccc1OC[C@@H]1CN(C(=O)OC(C)OC(=O)[C@@H](N)C(C)C)CCO1.Cl (mixture of isomers) [Compound 6, 1-[(S)-2-Amino-3-methylbutyroxy]ethyl (S)-2-[(o-ethoxyphenoxy)methyl]-4-morpholinecarboxylate, hydrochloride]		decomposed
